biological target: Aspartate--tRNA ligase (Escherichia coli (strain K12), UniProt P21889); experiment: Determination of the Inhibition Type and Constant (Ki); conditions: pH 7.5; 37 °C
Experimental: The Km and Kappm for the amino acid substrate were first calculated from Lineweaver-Burk plots. The Ki values were calculated from the Kappm vs [I] plot. The Ki values for the inhibitors with respect for the amino acid substrates were determined by measuring the apparent Km for the amino acid in the presence of saturating concentrations of both ATP and tRNA, and of various fixed concentrations of the inhibitor.

Chain of Aspartate--tRNA ligase (P21889 whole entry): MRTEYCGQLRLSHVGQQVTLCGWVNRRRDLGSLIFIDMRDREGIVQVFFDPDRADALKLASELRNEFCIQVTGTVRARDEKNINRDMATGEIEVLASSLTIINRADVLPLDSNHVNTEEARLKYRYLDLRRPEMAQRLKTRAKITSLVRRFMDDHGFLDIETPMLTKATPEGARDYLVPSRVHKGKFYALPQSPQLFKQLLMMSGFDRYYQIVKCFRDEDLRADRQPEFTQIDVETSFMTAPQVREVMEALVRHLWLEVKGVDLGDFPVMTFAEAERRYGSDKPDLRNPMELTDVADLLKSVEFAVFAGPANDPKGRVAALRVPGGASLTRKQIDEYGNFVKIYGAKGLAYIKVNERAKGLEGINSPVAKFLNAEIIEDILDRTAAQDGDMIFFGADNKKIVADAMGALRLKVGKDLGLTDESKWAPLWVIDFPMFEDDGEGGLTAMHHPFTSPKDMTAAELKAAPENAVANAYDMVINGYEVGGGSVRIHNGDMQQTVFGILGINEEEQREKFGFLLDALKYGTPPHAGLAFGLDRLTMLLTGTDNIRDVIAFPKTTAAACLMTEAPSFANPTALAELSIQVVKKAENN

Row | Compound | Ki
1 | Nc1ncnc2c1ncn2[C@@H]1O[C@H](COP(=O)(O)CC(=O)C(N)CC(=O)O)[C@@H](O)[C@H]1O (stereo partly drawn) [3-amino-5-({[(2R,3S,4R,5R)-5-(6-amino-9H-purin-9-yl)-3,4-dihydroxyoxolan-2-yl]methoxy}(hydroxy)phosphoryl)-4-oxopentanoic acid] | 123 nM
2 | Nc1ncnc2c1ncn2[C@@H]1O[C@H](COS(=O)(=O)NC(=O)C(N)CC(=O)O)[C@@H](O)[C@H]1O (stereo partly drawn) [3-amino-4-[({[(2R,3S,4R,5R)-5-(6-amino-9H-purin-9-yl)-3,4-dihydroxyoxolan-2-yl]methoxy}sulfonyl)amino]-4-oxobutanoic acid] | 15 nM
3 | Nc1ncnc2c1ncn2[C@@H]1O[C@H](COP(=O)(O)OC[C@@H](N)CC(=O)O)[C@@H](O)[C@H]1O [(3S)-3-amino-4-[({[(2R,3S,4R,5R)-5-(6-amino-9H-purin-9-yl)-3,4-dihydroxyoxolan-2-yl]methoxy}(hydroxy)phosphoryl)oxy]butanoic acid] | 45000 nM
